{
  "source": "patent US11147798B2",
  "about": "“Use of carbamate compound for prevention, alleviation, or treatment of demyelinating disease” (SK BIOPHARMACEUTICALS CO., LTD., priority 2016, dated 2021)",
  "key": {"[1]": {"test_system": "Experimental Autoimmune Encephalomyelitis (EAE) model", "assay": "Systemic motor symptom alleviation (EAE clinical score) in an Experimental Autoimmune Encephalomyelitis (EAE) model", "type": "in vivo, male C57BL/6 mice", "conditions": "for EAE clinical score: mean±SEM", "method": "For this experiment, male C57BL/6 mice were purchased from Orient Bio, Inc. of Korea. The mice were placed in a wire mesh cage under conditions of ambient temperature of 20 to 24° C., relative humidity of 55 to 75%, an automatically controlled light-and-darkness cycle of 12 hours and free access to feed (purchased from Agri Brands Purina Korea, Inc.) and water. The mice were housed and maintained in accordance with the Laboratory Animal Care Standards of the Institutional Animal Care and Use Committee (IACUC). After about one week of stabilization, mice weighing 18 to 23 g were used in the experiment.\nTo 100 mg of Mycobacterium tuberculosis H37RA (killed and desiccated; Difco, 231141, USA) which had been well triturated in mortar, was mixed 10 ml of Incomplete Freund's adjuvant (IFA; Difco, 263910, USA) to prepare 10 mg/ml of Complete Freund's adjuvant (CFA) storage solution, followed by refrigeration at 4° C. Myelin oligodendrocyte glycoprotein (MOG35-55; Peptron, Korea) was diluted with PBS (phosphate-buffered saline; Gibco, 10010, USA) to a final concentration of 2 mg/ml and stored at −20° C. (MOG35-55 storage solution).\n50 μg of PTX (pertussis toxin, PTX; Sigma, P7208, USA) was dissolved in 500 μl of PBS to prepare 100 μg/ml of pertussis toxin (PTX) storage solution, followed by […] at 4° C. In the experiment, the PTX storage solution was diluted 50 times with PBS and used.\nOn the first day of the experiment (Day-1), the EAE-inducing sample solution was administered to mice by subcutaneous injection at 200 μl per mouse. On the same day (Day-1) and two days later (Day-3), 200 μl of PTX solution was intraperitoneally administered to mice twice.\nThe EAE clinical score is as follows.\nAll data were expressed as mean±SEM. The EAE clinical scores in the group treated with the test compound were compared to those in the negative control vehicle group by date. Statistical analysis was performed using GraphPad Prism (ver. 4.0) program, and the differences between the two groups were analyzed by Student's t-test."}, "[2]": {"test_system": "Experimental Autoimmune Encephalomyelitis (EAE) model", "assay": "Pattern retinal conduction (pERG) amplitude in the EAE model", "type": "in vivo, female C57BL/6 mice", "conditions": "for Pattern retinal conduction amplitude (pERG amplitude), Mean ± SEM: measured 28 days after induction", "method": "(§1) For this experiment, female C57BL/6 mice were purchased from Janvier Labs of France and were maintained under conditions of temperature (22±1° C.), a light-and-darkness cycle of 12 hours and free access to water and food according to the protocol approved and investigated by the Animal Experiment Committee of Finland. All animals were kept isolated for a week after purchase and had time to adapt to the kennel. 11-week-old animals were used in the experiment. According to the criteria of the Animal Experiment Committee of Finland, in the case of a weight loss of 20% or more compared to the starting point, a degree of disease progression (clinical score) of 4 or more, or a failure in the righting reflex test in clinical score of 3, the experiment was stopped and animals were sacrificed for humanitarian purposes.\n(§2) To induce EAE, an inoculum was purchased from Hooke Laboratories of the United States: the inoculum contains 100 μg of MOG35-55 peptide and 200 μg of heat-inactivated Mycobacterium tuberculosis, both dissolved in 100 μl of mineral oil. 100 μl of the inoculum was injected subcutaneously into both high and low parts of the back of mice. 100 μl pertussis toxin was injected into the peritoneum of the mice twice, two hours after inoculation and after 24 hours.\nThe test compound was dissolved in distilled water containing 30% polyethylene glycol 400 (PEG 400) and treated with an ultrasonic sonicator for 30 minutes. […]\nPattern retinal conduction was measured two days before and 28 days after EAE induction. […] After performing the test, the results were analyzed using Matlab software (MathWorks, Natick, Mass.).\n(§3) Quantitative data were graphed (plotted) and analyzed using Prism software version 7 (GraphPad Software Inc. La Jolla, Calif.), the data were expressed as mean±standard deviation or standard error of mean. Comparisons with the vehicle group were analyzed using a t-test, and when the significance (p value) was less than 0.05, it was judged as a statistically significant difference."}, "retinal ganglion cells": {"test_system": "retinal ganglion cells", "assay": "Number of retinal ganglion cells per unit area in retinal whole mounts (Brn3a, RBPMS staining) in the EAE model", "type": "in vivo, female C57BL/6 mice", "method": "as §1, §2\nThe test compound was dissolved in distilled water containing 30% polyethylene glycol 400 (PEG 400) and treated with an ultrasonic sonicator for 30 minutes. The dissolved compound (20 mg/kg or 30 mg/kg) or vehicle was injected into the peritoneum once daily from the 12th day after EAE induction.\nWhen the experiment was terminated or when the time of sacrifice for humanitarian purposes was reached, the mice were sacrificed by cardiac perfusion using a tissue fixative, and the eye and optic nerve were removed for further analysis.\nThe retinal whole mount samples were extracted from both eyes and stained with antibodies of RBPMS (RNA binding protein with multiple splicing) and Brn3a (brain-specific homeobox/POU domain protein 3A) which are retinal ganglion cell markers, followed by analyzation in a stereological manner (Stereo Investigator, MicroBrightfield, VT, USA).\nas §3"}},
  "note": "Several values for one entry are separate records, joined by “and”; a condition that tells them apart may be missing. Equal entries are not always repeated.",
  "data": [
    {"compound": "NC(=O)O[C@@H](Cn1ncnn1)c1ccccc1Cl", "note": "[Test compound]", "values": [
      {"measurement": "EAE clinical score", "setting": "[1]; Day-1~Day-9 (before dosing)", "result": "0.0 ± 0.0"},
      {"measurement": "EAE clinical score", "setting": "[1]; Day-10 (before dosing)", "result": "0.5 ± 0.8"},
      {"measurement": "EAE clinical score", "setting": "[1]; Day-11, 10 ml/kg orally once a day from Day-11", "result": "0.8 ± 1.0"},
      {"measurement": "EAE clinical score", "setting": "[1]; Day-12, 10 ml/kg orally once a day from Day-11", "result": "1.2 ± 1.1"},
      {"measurement": "EAE clinical score", "setting": "[1]; Day-13, 10 ml/kg orally once a day from Day-11", "result": "1.3 ± 0.7"},
      {"measurement": "EAE clinical score", "setting": "[1]; Day-14, 10 ml/kg orally once a day from Day-11", "result": "2.0 ± 0.6"},
      {"measurement": "EAE clinical score", "setting": "[1]; Day-15, 10 ml/kg orally once a day from Day-11", "result": "1.9 ± 0.5"},
      {"measurement": "EAE clinical score", "setting": "[1]; Day-16, 10 ml/kg orally once a day from Day-11", "result": "1.9 ± 0.6"},
      {"measurement": "EAE clinical score", "setting": "[1]; Day-17, 10 ml/kg orally once a day from Day-11", "result": "2.1 ± 0.6"},
      {"measurement": "EAE clinical score", "setting": "[1]; Day-17, 10 ml/kg orally once a day from Day-11, listed as test compound", "result": "2.1±0.6"},
      {"measurement": "EAE clinical score", "setting": "[1]; Day-18, 10 ml/kg orally once a day from Day-11", "result": "1.8 ± 0.5"},
      {"measurement": "EAE clinical score", "setting": "[1]; Day-19, 10 ml/kg orally once a day from Day-11, p < 0.05 vs. vehicle", "result": "1.7 ± 0.6"},
      {"measurement": "Effect on EAE clinical symptoms compared to the vehicle group", "setting": "[1]; Day-19 to Day-22, orally once a day from Day-11", "result": "significant inhibition of EAE clinical symptoms"},
      {"measurement": "EAE clinical score", "setting": "[1]; Day-20, 10 ml/kg orally once a day from Day-11, p < 0.05 vs. vehicle", "result": "1.4 ± 0.5"},
      {"measurement": "EAE clinical score", "setting": "[1]; Day-21, 10 ml/kg orally once a day from Day-11, p < 0.01 vs. vehicle", "result": "1.3 ± 0.4"},
      {"measurement": "EAE clinical score", "setting": "[1]; Day-22, 10 ml/kg orally once a day from Day-11, p < 0.01 vs. vehicle", "result": "1.1 ± 0.5"},
      {"measurement": "Pattern retinal conduction amplitude (pERG amplitude), Mean ± SEM", "setting": "[2]; 20 mg/kg i.p. once daily from 12th day after EAE induction", "result": 7.803},
      {"measurement": "Pattern retinal conduction amplitude compared to the baseline", "setting": "[2]; 20 mg/kg or 30 mg/kg, baseline measured two days before EAE induction", "result": "no significant difference"},
      {"measurement": "Pattern retinal conduction amplitude (pERG amplitude), Mean ± SEM", "setting": "[2]; 30 mg/kg i.p. once daily from 12th day after EAE induction", "result": 7.378},
      {"measurement": "Number of retinal ganglion cells per unit area, Brn3a (individual values)", "setting": "retinal ganglion cells; 20 mg/kg i.p. once daily from 12th day after EAE induction, Brn3a marker", "result": "2675 and 1751 and 1443 and 2139 and 720 and 2221 and 1859 and 2489 and 1674 and 2035 and 2328 and 1389 and 1919"},
      {"measurement": "Number of retinal ganglion cells per unit area, Brn3a, Mean ± SEM", "setting": "retinal ganglion cells; 20 mg/kg i.p. once daily from 12th day after EAE induction, Brn3a marker, **p < 0.01 vs. vehicle", "result": 1895},
      {"measurement": "Number of retinal ganglion cells per unit area, RBPMS (individual values)", "setting": "retinal ganglion cells; 20 mg/kg i.p. once daily from 12th day after EAE induction, RBPMS marker", "result": "3005 and 2251 and 1778 and 2976 and 1781 and 2297 and 2479.9735 and 2722 and 2362 and 2485.7761 and 2784.6808 and 2292 and 2567"},
      {"measurement": "Number of retinal ganglion cells per unit area, RBPMS, Mean ± SEM", "setting": "retinal ganglion cells; 20 mg/kg i.p. once daily from 12th day after EAE induction, RBPMS marker, **p < 0.01 vs. vehicle", "result": 2445},
      {"measurement": "Number of retinal ganglion cells per unit area compared to the vehicle group", "setting": "retinal ganglion cells; 20 mg/kg, EAE-induced animals", "result": "larger number of retinal ganglion cells per unit area"}
    ]}
  ]
}
